Experimental data from patent publication US10150760B2, “Compounds for use in preparing heterocyclic triazole agonists of the APJ receptor” (AMGEN INC., priority 2016, dated 2018).

What was measured:
[1] = tested on: isolated perfused rat hearts; assay: Ex vivo isolated perfused rat heart assay (Langendorff apparatus), load independent inotropic and lusitropic effects; parameters: species or system Sprague Dawley rat; conditions: for Isolated Heart Assay dP/dtmax (%) / Isolated Heart Assay dP/dtmin (%): ex vivo isolated perfused rat heart, percent change over vehicle; for Isolated Heart Assay dP/dtmax (%): contractility; for Isolated Heart Assay dP/dtmin (%): relaxation; for left ventricular dP/dtmax (load independent cardiac contractility) / left ventricular dP/dtmin (load independent cardiac relaxation, lusitropic effect): ex vivo naive Sprague Dawley rat hearts, Langendorff apparatus, compared with vehicle
Description: Evidence for Load Independent Inotropic Effects with APJ Agonists Using Ex Vivo Assay (Isolated Perfused Rat Hearts)
Naive Sprague Dawley® SD rats (Harlan laboratories (Livermore, Calif. USA)) were anaesthetized and hearts were excised followed by cannulation in the Langendorff apparatus (Harvard apparatus, Holliston, Mass. USA) via aorta. The heart was perfused retrograde with modified oxygenated Krebs-Henseleit buffer (Skrzypiec-Spring M et al., (2007) J. Pharmacol Toxicol Methods 55: 113-126). The pressure of the solution causes the aortic valve to shut and the perfusate is then forced into the ostium and the coronary vessels. This allows the heart to beat for several h. A balloon was inserted into the left ventricle (LV) to measure dP/dtmax (derivative of left ventricular pressure) as an index of cardiac contractility. The APJ agonist was perfused constantly in a dose dependent manner into the heart to examine cardiac contractility.
Example 49.0 was infused at different concentrations and load independent contractility was measured by index of LV dP/dtmax and the results are expressed as a percent change over vehicle. […] Example 49.0 was infused at different concentrations and load independent lusitropic effect (relaxation) was measured by index of LV dP/dtmin where results are expressed as percent change over vehicle. […] Example 60.0 was infused at different concentrations and load independent contractility was measured by index of LV dP/dtmax and the results are expressed as a percent change over vehicle. […] Example 60.0 was infused at different concentrations and load independent lusitropic effect (relaxation) was measured by index of LV dP/dtmin where results are expressed as percent change over vehicle.

[2] = tested on: Male Lewis rats with heart failure induced by permanent ligation of the left descending coronary artery; assay: Cardiac contractility in vivo in heart failure (MI) rat model; conditions: for cardiac contractility as measured by dP/dtmax (derivative of left ventricular pressure): heart failure rats, ejection fraction <35%, administered acutely for 30 min; for MI Rat Model dP/dtmax (%): in vivo, heart failure (MI) rat, acute administration for 30 min
Protocol: Evidence for Improvement in Cardiac Contractility In Vivo in Heart Failure Rat Model
Based on the ex vivo findings in isolated heart assay, APJ agonists were dosed in vivo to investigate the translation of cardiac contractility in in vivo settings. Male Lewis rats (Charles River, USA) at 2-3 months of age were used for the study. Heart failure was induced by permanent ligation of the left descending coronary artery which results in injury to the heart with an ejection fraction of <35%. APJ agonists were administered dose dependently acutely for a period of 30 min.

human APJ receptor = human APJ receptor (Homo sapiens (Human), UniProt P35414); assay: [35S]GTPγS binding assay on membranes from CHO cells stably expressing human APJ receptor; assay type: biochemical; conditions: read-out: Activity hAPJ SPA EC50 IP
human APJ receptor, sequence (P35414 whole entry): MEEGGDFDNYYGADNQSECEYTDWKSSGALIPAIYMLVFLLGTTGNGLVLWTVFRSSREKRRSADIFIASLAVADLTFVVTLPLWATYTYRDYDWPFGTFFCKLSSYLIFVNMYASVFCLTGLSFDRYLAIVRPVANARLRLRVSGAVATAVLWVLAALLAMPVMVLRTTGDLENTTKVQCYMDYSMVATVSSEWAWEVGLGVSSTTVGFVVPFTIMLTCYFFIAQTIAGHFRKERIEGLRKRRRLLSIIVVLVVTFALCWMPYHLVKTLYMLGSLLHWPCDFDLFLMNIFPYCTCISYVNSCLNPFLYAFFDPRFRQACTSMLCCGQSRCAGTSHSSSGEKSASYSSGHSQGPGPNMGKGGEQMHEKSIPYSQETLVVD
How it was run: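 Agonist-driven [35S]GTPγS (0.2 nM) binding was measured over 90 min at room temperature on human APJ-expressing CHO membranes with bead capture, in buffer containing 3 μM GDP, 200 mM NaCl and 5 mM MgCl2 (pH 7.5). Excess unlabelled GTPγS (100 μM) gave nonspecific signal; EC50 from non-linear fits.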

heart failure rats = assay: Cardiac function with APJ small molecule agonists in the presence of ACE inhibitor captopril in heart failure rats in vivo; parameters: species or system rat; conditions: captopril alone, acute settings
Description: The interaction between […] (ACE2) and Apelin biology is complicated. To investigate the interaction between the Apelin-APJ and ACE signaling pathways, we examined the improvement in cardiac function with APJ small molecule agonists in the presence of ACE inhibitor captopril in heart failure rats in vivo. […] However, in the presence of an APJ agonist, there was a shift in potency to the left with marked improvement in contractility and ejection fraction without changes in heart rate. These findings provide a new reference for the understanding of the regulation of ACE2 for the renin angiotensin aldosterone system (RAAS), independent of AT1R signaling and offer new potential drug targets for the treatment of diseases such as hypertension and heart failure. This work clearly establishes that combination of an agonist of the APJ receptor with an ARB such as losartan and/or with an ACE inhibitor such as captopril which may play an important role in providing greater efficacy in treating heart failure patients, for example in improving contractility and ejection fraction without changing the heart rate.

Structure (SMILES) | Isolated Heart Assay dP/dtmax (%) [1] | Isolated Heart Assay dP/dtmin (%) [1] | left ventricular dP/dtmax (load independent cardiac contractility) [1] | left ventricular dP/dtmin (load independent cardiac relaxation, lusitropic effect) [1] | cardiac contractility as measured by dP/dtmax (derivative of left ventricular pressure) [2] | MI Rat Model dP/dtmax (%) [2] | EC50 (human APJ receptor) | improvement in contractility or ejection fraction (heart failure rats)
COc1cccc(OC)c1-n1c(NS(=O)(=O)[C@@H](C)[C@H](C)c2ncc(C)cn2)nnc1[C@H]1CCCO1 (single isomer, unassigned) [Example 49.0, (2S,3R)-N-(4-(2,6-dimethoxyphenyl)-5-((S)-tetrahydrofuran-2-yl)-4H-1,2,4-triazol-3-yl)-3-(5-methylpyrimidin-2-yl)butane-2-sulfonamide or (2S,3R)-N-(4-(2,6-dimethoxyphenyl)-5-((R)-tetrahydrofuran-2-yl)-4H-1,2,4-triazol-3-yl)-3-(5-methylpyrimidin-2-yl)butane-2-sulfonamide] | 20% | 55% | increases load independent cardiac contractility | increases load independent cardiac relaxation | increase in cardiac contractility | 20.0% | 1.8 nM | 
C[C@H](CS)C(=O)N1CCC[C@H]1C(=O)O [Captopril, captopril] |  |  |  |  |  |  |  | does not show a marked improvement in contractility or ejection fraction
COc1cccc(OC)c1-n1c(NS(=O)(=O)[C@@H](C)[C@H](C)c2ncc(Cl)cn2)nnc1[C@H]1CCOC1 (single isomer, unassigned) [Example 60.0, (2S,3R)-3-(5-chloropyrimidin-2-yl)-N-(4-(2,6-dimethoxyphenyl)-5-((R)-tetrahydrofuran-3-yl)-4H-1,2,4-triazol-3-yl)butane-2-sulfonamide or (2S,3R)-3-(5-chloropyrimidin-2-yl)-N-(4-(2,6-dimethoxyphenyl)-5-((S)-tetrahydrofuran-3-yl)-4H-1,2,4-triazol-3-yl)butane-2-sulfonamide] | 19.1% | 18.3% | increases load independent cardiac contractility | increases load independent cardiac relaxation | increase in cardiac contractility | 20.0% | 9.3 nM | 
COc1cccc(OC)c1-n1c(NS(=O)(=O)[C@@H](C)[C@@H](OC(C)C)c2ncc(C)cn2)nnc1[C@H]1CCCO1 (single isomer, unassigned) [Example 97.0, (1S,2S)-N-(4-(2,6-dimethoxyphenyl)-5-((S)-tetrahydrofuran-2-yl)-4H-1,2,4-triazol-3-yl)-1-isopropoxy-1-(5-methylpyrimidin-2-yl)propane-2-sulfonamide or (1S,2S)-N-(4-(2,6-dimethoxyphenyl)-5-((R)-tetrahydrofuran-2-yl)-4H-1,2,4-triazol-3-yl)-1-isopropoxy-1-(5-methyl-pyrimidin-2-yl)propane-2-sulfonamide] | 5.5% | 2.0% |  |  |  |  | 15 nM | 
COc1ncnc(OC)c1-n1c(NS(=O)(=O)[C@@H](C)[C@H](OC)c2ncc(Cl)cn2)nnc1[C@H]1CCC(C)(C)O1 (single isomer, unassigned) [Example 139.0, (1R,2S)-1-(5-chloropyrimidin-2-yl)-N-(4-(4,6-dimethoxypyrimidin-5-yl)-5-((S)-5,5-dimethyltetrahydrofuran-2-yl)-4H-1,2,4-triazol-3-yl)-1-methoxypropane-2-sulfonamide or (1R,2S)-1-(5-chloropyrimidin-2-yl)-N-(4-(4,6-dimethoxypyrimidin-5-yl)-5-((R)-5,5-dimethyhetrahydrofuran-2-yl)-4H-1,2,4-triazol-3-yl)-1-methoxypropane-2-sulfonamide] | 20.9% | 30.4% |  |  |  |  | 4.8 nM | 
COc1cccc(OC)c1-n1c(NS(=O)(=O)[C@@H](C)[C@H](C)c2ncc(C)cn2)nnc1[C@H]1OCC[C@H]1C (single isomer, unassigned) [Example 72.0, (2S,3R)-N-(4-(2,6-dimethoxyphenyl)-5-((2R,3S)-3-methyltetrahydrofuran-2-yl)-4H-1,2,4-triazol-3-yl)-3-(5-methylpyrimidin-2-yl)butane-2-sulfonamide or (2S,3R)-N-(4-(2,6-dimethoxyphenyl)-5-((2S,3R)-3-methyltetrahydrofuran-2-yl)-4H-1,2,4-triazol-3-yl)-3-(5-methylpyrimidin-2-yl)butane-2-sulfonamide] | 5.9% | 2.5% |  |  |  |  | 6.8 nM | 
COc1cccc(OC)c1-n1c(NS(=O)(=O)[C@@H](C)[C@H](C)c2ncc(F)cn2)nnc1[C@@H]1COCCO1 (single isomer, unassigned) [Example 275.0, (2S,3R)-N-(4-(2,6-dimethoxyphenyl)-5-((R)-1,4-dioxan-2-yl)-4H-1,2,4-triazol-3-yl)-3-(5-fluoropyrimidin-2-yl)butane-2-sulfonamide or (2S,3R)-N-(4-(2,6-dimethoxyphenyl)-5-((S)-1,4-dioxan-2-yl)-4H-1,2,4-triazol-3-yl)-3-(5-fluoropyrimidin-2-yl)butane-2-sulfonamide] | 7.95% | 13.5% |  |  |  |  | 20 nM | 
COc1cccc(OC)c1-n1c(NS(=O)(=O)[C@@H](C)[C@H](OC)c2ncc(Cl)cn2)nnc1[C@H]1CCOC1 (single isomer, unassigned) [Example 56.0, (1R,2S)-1-(5-chloropyrimidin-2-yl)-N-(4-(2,6-dimethoxyphenyl)-5-((R)-tetrahydrofuran-3-yl)-4H-1,2,4-triazol-3-yl)-1-methoxypropane-2-sulfonamide or (1R,2S)-1-(5-chloropyrimidin-2-yl)-N-(4-(2,6-dimethoxyphenyl)-5-((S)-tetrahydrofuran-3-yl)-4H-1,2,4-triazol-3-yl)-1-methoxypropane-2-sulfonamide] | 6.8% | 7.1% |  |  |  |  | 19 nM | 
CO[C@H](c1ncc(Cl)cn1)[C@H](C)S(=O)(=O)Nc1nnc([C@H]2CCCCO2)n1C1(C)CC1 (single isomer, unassigned) [Example 112.0, (1R,2S)-1-(5-chloropyrimidin-2-yl)-1-methoxy-N-(4-(1-methylcyclopropyl)-5-((S)-tetrahydro-2H-pyran-2-yl)-4H-1,2,4-triazol-3-yl)propane-2-sulfonamide or (1R,2S)-1-(5-chloropyrimidin-2-yl)-1-methoxy-N-(4-(1-methylcyclopropyl)-5-((R)-tetrahydro-2H-pyran-2-yl)-4H-1,2,4-triazol-3-yl)propane-2-sulfonamide] | No effect | No effect |  |  |  |  | 14 nM | 
